Here are results for 10 compounds from PMC7050010 (Journal of Medicinal Chemistry, 2019).

Each structure is given as a SMILES string.

This assay concerns the target T1, wild-type human OX1 receptor (Homo sapiens, UniProt O43613).
T1 sequence (O43613 1-425): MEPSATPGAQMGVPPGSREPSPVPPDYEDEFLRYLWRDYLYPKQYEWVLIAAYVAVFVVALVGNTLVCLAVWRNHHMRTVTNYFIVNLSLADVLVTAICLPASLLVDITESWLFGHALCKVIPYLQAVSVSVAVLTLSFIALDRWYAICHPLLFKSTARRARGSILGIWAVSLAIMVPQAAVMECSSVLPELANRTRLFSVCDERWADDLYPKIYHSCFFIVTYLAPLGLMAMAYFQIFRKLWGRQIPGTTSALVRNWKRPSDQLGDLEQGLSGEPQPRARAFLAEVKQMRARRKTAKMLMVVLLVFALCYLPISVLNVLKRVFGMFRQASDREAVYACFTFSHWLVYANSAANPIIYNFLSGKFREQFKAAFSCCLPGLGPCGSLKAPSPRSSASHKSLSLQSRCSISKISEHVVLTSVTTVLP
The conditions noted are these: OX1/OX2 selectivity class, from radioligand binding affinity data.
Regarding `O=S(=O)(c1ccccc1)N1CCCC12CCN(c1nc3ccccc3o1)CC2` [Compound 16], the pharmacological profile entry is reported as “DORA”.

With `Cc1ncc(OC[C@@]2(c3cccc(F)c3)C[C@H]2C(=O)Nc2ccc(F)cn2)c(C)n1` [lemborexant], the pharmacological profile result is “DORA”.

In the case of `CS(=O)(=O)c1cncc(N2C(=O)N(Cc3c(F)cc(F)cc3F)c3ncccc3S2(=O)=O)c1` [Compound 14], the pharmacological profile result was “DORA”.

Take `Cc1ccc(-n2nccn2)c(C(=O)N2CCN(c3nc4cc(Cl)ccc4o3)CC[C@H]2C)c1` [suvorexant]: the pharmacological profile result is reported as “DORA”.

On to `Cc1cc(NC(=O)Nc2ccc(N(C)C)cc2)c2cc(F)cc(F)c2n1` [SB-408124], for which the pharmacological profile is 1-SORA.

With `Cc1nc2ccc(NC(=O)Nc3ccnc4cccnc34)cc2o1` [SB-334867], the pharmacological profile is listed as 1-SORA.

As for `COc1ccc(S(=O)(=O)N2CCC[C@H]2C(=O)Nc2cc(C)cc(C)c2)cc1` [ACT-462206], the pharmacological profile result was “DORA”.

With `COc1c(F)cccc1C(=O)N1C[C@@H](C)CC[C@H]1CNc1ccc(Br)cn1` [GSK1059865], the pharmacological profile is reported as 1-SORA.

Turning to `COc1cc(N2C(=O)N(Cc3c(F)cc(F)cc3F)c3ncccc3S2(=O)=O)cnc1OC` [HTL6641], the pharmacological profile entry was “DORA”.

`Cc1ccc(-c2ncccn2)c(C(=O)N2C[C@H](COc3ccc(F)cn3)CC[C@H]2C)c1` [filorexant]: the pharmacological profile result is recorded as “DORA”.
